Reference: patent US20100003217A1, “Compounds and Pharmaceutical Compositions for the Treatment of Viral Infections” (priority 2008, published 2010)
Where two headings read alike, the source gives them in different places.

What was measured:
[1] = Metabolite profiling in human liver microsomes; type: in vitro ADME; parameters: key: +: peak detected; ?: peak observed; ND: not detected; settings: 50 μM Compound 1, 2 hours
Procedure: Preliminary identification of putative metabolites was conducted by comparing the retention time of observed metabolites with retention times obtained with chemically synthesized standards using the following HPLC-UV method:
Incubations with liver microsomes, liver cytosol or pig liver esterase were conducted in a final volume of 0.1 mL per incubation time point. Pooled microsomal protein (1.0 mg/mL) suspended in incubation buffer (0.1 M potassium phosphate, pH 7.4) was incubated for 2 hours at 37° C. with 50 μM Compound 1 from a stock solution in DMSO (final DMSO concentration was 0.1%); the microsomal reaction was initiated by the addition of an NADPH regenerating system (1.3 mM NADP^+, 3.3 mM glucose-6-phosphate, 0.4 U/ml glucose-6-phosphate dehydrogenase, and 3.3 mM MgCl2, final concentrations). Incubations with no NADPH or no protein served as controls. Reactions were terminated by the addition of 0.1 mL of stop solution (acetonitrile). The samples were vortex-mixed for 30 sec and then centrifuged at 10,000×g for 10 min. The supernatant was dried using a Labconco CentriVap concentrator and the dry residue reconstituted in water, transferred to an HPLC glass vial and analyzed by HPLC-UV method 2 (described above).
Results: Preliminary identification was accomplished by comparing LC elution of metabolites with that of available synthetic standards of putative metabolites (FIG. 2). Metabolites U1, U2 and U3 were characterized based on the retention times.

[2] = Stability in human liver microsomes; type: in vitro ADME; settings: 10 μM; for % Residual Compound 1: human liver microsomes 1 mg/mL
Procedure: (§1) Disappearance of parent Compound 1 was used to evaluate the in vitro metabolism thereof. Relative levels of unchanged Compound 1 were measured by HPLC-UV method 1. Residual Compound 1 is reported as percent difference from time zero or control. The HPLC-UV system was as follows:
Incubations with liver microsomes or cytosol were conducted in a final volume of 0.1 mL per incubation time point. […] The microsomal reaction was initiated by the addition of NADPH (3 mM final concentration). Incubations with (a) no protein or (b) no NADPH served as controls. Reactions were terminated by the addition of 0.2 mL of stop solution (acetonitrile). The samples were vortex-mixed for 30 sec and then centrifuged at 10,000×g for 10 min. The supernatant was dried using a Labconco CentriVap concentrator and the dry residue reconstituted in water, transferred to an HPLC glass vial and analyzed by HPLC-UV method 1 (described above).
(§2) Metabolic stability of the proposed metabolites was conducted by incubating the chemically synthesized standards Compound 2, Compound 4 and Compound 3 as described above for Compound 1. When possible, formation of Compound 5 was verified by incubating samples with alkaline phosphatase (10 U) for 60 min at 37° C.

[3] = Stability in monkey liver microsomes; type: in vitro ADME; settings: 10 μM; for % Residual Compound 1: monkey liver microsomes 1 mg/mL
Procedure: as §1
Incubations with liver microsomes or cytosol were conducted in a final volume of 0.1 mL per incubation time point. […] DMSO (final DMSO concentration was 0.1%) was incubated at 37° C. from 0-60 min with pooled microsomal protein (1.0 mg/mL), suspended in incubation buffer (0.1 M potassium phosphate, pH 7.4, 5 mM MgCl2, and 0.1 mM EDTA). The microsomal reaction was initiated by the addition of NADPH (3 mM final concentration). Incubations with (a) no protein or (b) no NADPH served as controls. Reactions were terminated by the addition of 0.2 mL of stop solution (acetonitrile). The samples were vortex-mixed for 30 sec and then centrifuged at 10,000×g for 10 min. The supernatant was dried using a Labconco CentriVap concentrator and the dry residue reconstituted in water, transferred to an HPLC glass vial and analyzed by HPLC-UV method 1 (described above).
as §2

[4] = Metabolite profile in rat liver; type: in vivo, male Sprague-Dawley rats; settings: for Percent of Dose, Liver 24 h: after [14C]Compound 1; for concentration at 2 h / concentration at 6 h / concentration at 24 h: male, Sprague-Dawley, rat, liver, read-out: liver concentration as μg equivalents/g; for % of the total radioactivity in liver / liver metabolite, % of the administered dose: rat liver; for liver metabolite, % of the administered dose: IV dose
Procedure: Homogenates were prepared on dry ice in 70% methanol-30% water containing 20 mM EDTA and 20 mM EGTA (about 1× (w/v) weight of the liver) and were stored frozen. Pooled liver samples were prepared for all groups by combining a fixed percentage of the total weight of each individual animal sample homogenate for each group. Each pooled liver homogenate (3.77-5.02 g) was placed in a 50-mL polypropylene centrifuge tube and 16.0 mL of methanol:water (70:30) was added. The sample was vortexed for one minute, and then centrifuged at 11200×g for 20 minutes. The supernatant was transferred to a tube and total volume was measured. The extraction procedure was repeated three additional times. Radioactivity of each supernatant was determined by LSC of duplicate aliquots (100 μL each) for extraction recovery. Subsamples of all four extracts from each sample were taken for proportionate pooling. For Group 1, the subsamples were pooled before concentration and, for Group 2, each subsample was concentrated separately and then pooled due to the larger volumes involved. Each extract was completely dried or reduced to approximately 100 μL. Reconstitution was accomplished with methanol (20 μL) and sufficient volume of the aqueous mobile phase of HPLC method 2 such that the total volume of each reconstituted sample was 500 μL. Duplicate aliquots of the reconstituted samples were analyzed by LSC. Each sample was analyzed by HPLC method 2.
Percent of the administered dose (% AD) for parent drug and each metabolite at each collection period=(% of the total radioactivity in the sample attributed to the metabolite)*(total radioactivity expressed as % of the administered dose, recovered during the corresponding collection period).
Microgram equivalents/g for parent drug or metabolite at each collection period (% radioactivity for each metabolite)*(total μg equivalents/g during the corresponding collection period).
Liver homogenates were pooled for each time point for both dose groups by proportional mixing according to the weight of the samples from individual animals. The pooled samples were extracted and prepared for HPLC analysis as described above. The abundance of metabolites was determined as a % of the administered dose and as μg equivalent/g. The data are presented in Table 54, Table 55, Table 56 and Table 57, respectively. Metabolites R^1, R^8 and R^9 were characterized based on retention time.

[5] = group 1 (IV dose) pooled liver, 2 h
[6] = group 1 (IV dose) pooled liver, 2 h (Table 56)
[7] = group 1 (IV dose) pooled liver, 6 h
[8] = group 1 (IV dose) pooled liver, 6 h (Table 56)
[9] = group 1 (IV dose) pooled liver, 24 h
[10] = group 1 (IV dose) pooled liver, 24 h (Table 56)
[11] = group 2 (PO dose) pooled liver, 2 h
[12] = group 2 (PO dose) pooled liver, 6 h
[13] = group 2 (PO dose) pooled liver, 24 h
[14] = iv, 50 mg/kg, group 1 (IV dose) pooled liver, 2 h
[15] = iv, 50 mg/kg, group 1 (IV dose) pooled liver, 6 h
[16] = iv, 50 mg/kg, group 1 (IV dose) pooled liver, 24 h

In vitro metabolite profile in microsomes following incubation with Compound 1 (peak detection) [1] | Percent of Dose, Liver 24 h ([4]; IV) | % AD [4, 5] [% AD] | % HPLC (percent of HPLC peak area in the sample extract) [4, 5] [%] | % HPLC (percent of HPLC peak area in the sample extract) [4, 6] [%] | % AD [4, 7] [% AD] | % HPLC (percent of HPLC peak area in the sample extract) [4, 7] [%] | % HPLC (percent of HPLC peak area in the sample extract) [4, 8] [%] | % AD [4, 9] [% AD] | % HPLC (percent of HPLC peak area in the sample extract) [4, 9] [%] | % HPLC (percent of HPLC peak area in the sample extract) [4, 10] [%] | concentration at 2 h [4, 14] [ng/g] | concentration at 6 h [4, 15] [ng/g] | concentration at 24 h [4, 16] [ng/g] | % of the total radioactivity in liver ([4]; IV dose, 2, 6 and 24 h) | % of the total radioactivity in liver ([4]; PO dose, 2, 6 and 24 h) | Compound | further results
+ | 0.42% of Dose | 2.14 | 13.8 | 13.8 | 1.48 | 14.6 | 14.6 | 0.42 | 23.9 | 23.9 | 28400 | 20000 | 5560 | 14-24% | 54-85% | C[C@@]1(O)[C@H](O)[C@@H](CO)O[C@H]1n1cnc2c(=O)[nH]c(N)nc21 [2′-C-methyl guanosine, 9-(2-C-methyl-β-D-ribofuranosyl)guanine, reference compound] | Percent of Dose, Liver 24 h ([4]; Oral): 0.09% of Dose; % AD [4, 11]: 0.15 % AD; % HPLC (percent of HPLC peak area in the sample extract) [4, 11]: 77.5%; % HPLC (percent of HPLC peak area in the sample extract) ([4]; group 2 (PO dose) pooled liver, 2 h (Table 57)): 77.5%; % AD [4, 12]: 0.32 % AD; % HPLC (percent of HPLC peak area in the sample extract) [4, 12]: 85.0%; % HPLC (percent of HPLC peak area in the sample extract) ([4]; group 2 (PO dose) pooled liver, 6 h (Table 57)): 85.0%; % AD [4, 13]: 0.09 % AD; % HPLC (percent of HPLC peak area in the sample extract) [4, 13]: 53.9%; % HPLC (percent of HPLC peak area in the sample extract) ([4]; group 2 (PO dose) pooled liver, 24 h (Table 57)): 53.9%; concentration at 2 h ([4]; po, 100 mg/kg, group 2 (PO dose) pooled liver, 2 h): 3940 ng/g; concentration at 6 h ([4]; po, 100 mg/kg, group 2 (PO dose) pooled liver, 6 h): 8760 ng/g; concentration at 24 h ([4]; po, 100 mg/kg, group 2 (PO dose) pooled liver, 24 h): 2200 ng/g
+ | 1.05% of Dose | 9.73 | 62.6 | 62.6 | 6.39 | 63.1 | 63.1 | 1.05 | 59.9 | 59.9 | 129000 | 86200 | 13900 | 60-63% | not detected | C[C@@]1(O)[C@H](O)[C@@H](COP(=O)(O)O)O[C@H]1n1cnc2c(=O)[nH]c(N)nc21 [Compound 5, [(2R)-2-methyl-β-D-ribofuranosyl]guanine 5′-monophosphate] | liver metabolite, % of the administered dose ([4]; 2 h (Group 1A)): 9.7 % AD; liver metabolite, % of the administered dose ([4]; 6 h (Group 1B)): 6.4 % AD; liver metabolite, % of the administered dose ([4]; 24 h): 1.1 % AD

Compound | In vitro metabolite profile in microsomes following incubation with Compound 1 (peak detection) [1] | Percent of Dose, Liver 24 h ([4]; IV) | % AD [4, 5] [% AD] | % HPLC (percent of HPLC peak area in the sample extract) [4, 5] [%] | % HPLC (percent of HPLC peak area in the sample extract) [4, 6] [%] | % AD [4, 7] [% AD] | % HPLC (percent of HPLC peak area in the sample extract) [4, 7] [%] | % HPLC (percent of HPLC peak area in the sample extract) [4, 8] [%] | % AD [4, 9] [% AD] | % HPLC (percent of HPLC peak area in the sample extract) [4, 9] [%] | % HPLC (percent of HPLC peak area in the sample extract) [4, 10] [%] | concentration at 2 h [4, 14] [ng/g] | concentration at 6 h [4, 15] [ng/g] | concentration at 24 h [4, 16] [ng/g] | % of the total radioactivity in liver ([4]; IV dose, 2, 6 and 24 h) | % of the total radioactivity in liver ([4]; PO dose, 2, 6 and 24 h) | further results
CC(C)(CO)C(=O)SCCOP(=O)(NCc1ccccc1)OC[C@H]1O[C@@H](n2cnc3c(=O)[nH]c(N)nc32)[C@](C)(O)[C@@H]1O (mixture of isomers) [Compound 1, 3-hydroxy-2,2-dimethyl-thiopropionic acid S-(2-{[(2R,3R,4R,5R)-5-(2-amino-6-oxo-1,6-dihydro-purin-9-yl)-3,4-dihydroxy-4-methyl-tetrahydro-furan-2-ylmethoxy]-benzylamino-phosphoryloxy}-ethyl) ester] | + | – | – | – | – | – | – | – | – | – | – | – | – | – | – | – | % Residual Compound 1 ([2]; 0 min, NADPH): 100%; % Residual Compound 1 ([2]; 0 min, No Cofactor): 100%; % Residual Compound 1 ([2]; 30 min, NADPH): 52%; % Residual Compound 1 ([2]; 30 min, No Cofactor): 100%; % Residual Compound 1 ([2]; 60 min, NADPH): 34%; % Residual Compound 1 ([2]; 60 min, No Cofactor): 94%; NADPH-dependent metabolism ([2]; human liver microsomes, NADPH, 60 min): 66%; % Residual Compound 1 ([3]; 0 min, NADPH): 100%; % Residual Compound 1 ([3]; 0 min, No Cofactor): 100%; % Residual Compound 1 ([3]; 30 min, NADPH): 0%; % Residual Compound 1 ([3]; 30 min, No Cofactor): 81%; % Residual Compound 1 ([3]; 60 min, NADPH): 0%; NADPH-dependent metabolism ([3]; monkey liver microsomes, NADPH, 30 min): 100%
